Test results taken from patent US20250296938A1, “Compounds that Interact with the Ras Superfamily for the Treatment of Cancers, Inflammatory Diseases, Rasopathies, and Fibrotic Disease” (SHY Therapeutics, LLC, priority 2018, published 2025).

Columns and labels:
[1] = target: GTP binding domain of Ras; conditions: literature (Feuerstein 1987; John 1990); cited from earlier work
Rac-1 [2] = target: T1, Rac-1 (Homo sapiens, UniProt P63000); assay: MicroScale Thermophoresis (MST), GTP affinity; format: binding
K-Ras (wild type) [3] = target: T2, K-Ras (wild type) (Homo sapiens, UniProt P01116); assay: Scintillation Proximity Assay (SPA), GTP affinity; format: binding
T2 sequence (P01116 1-188 isoform P01116-2): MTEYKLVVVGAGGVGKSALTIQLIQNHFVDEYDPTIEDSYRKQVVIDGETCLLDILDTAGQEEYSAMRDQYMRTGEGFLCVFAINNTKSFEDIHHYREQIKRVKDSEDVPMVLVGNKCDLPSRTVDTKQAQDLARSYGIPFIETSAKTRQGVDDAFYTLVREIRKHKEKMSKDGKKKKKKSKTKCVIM
Text: (§1) As disclosed in International Application No. PCT/US2018/038613 and U.S. patent application Ser. No. 16/013,872, the affinity of GTP for the GTP binding domain of K-Ras utilizing a Scintillation Proximity Assay (SPA) and MicroScale Thermophoresis (MST) has been measured. These methods were not available when Wittinghofer and colleagues undertook their studies.
(§2) This therefore led to the novel, unanticipated conclusion that compounds such as small molecules could be discovered that would bind to a Ras GTP binding domain and compete with the binding of GTP to Ras.
(§3) See Khawaja et al., “Scintillation proximity assay in lead discovery”, Expert Opin. Drug Discov., 2008 November; 3 (11): 1267-80 regarding SPA procedures. See the following references regarding MST technology: Wienken et al., Nature Communications (2010), Protein binding assays in biological liquids using MicroScale Thermophoresis; Jerabek-Willemsen et al., ASSAY and Drug Development Technologies (2011), Molecular interaction studies using MicroScale Thermophoresis; Lin et al., Cell (2012), Inhibition of basal FGF receptor signaling by dimeric Grb2; Seidel et al., Angewandte Chemie (2012), Label-Free MicroScale Thermophoresis discriminates sites and affinity of protein-ligand binding; Seidel et al., Methods (2012), MicroScale Thermophoresis quantifies biomolecular interactions under previously challenging conditions; Parker & Newstead, Nature (2014), Molecular basis of nitrate uptake by the plant nitrate transporter NRT1.1; and Jerabek-Willemsen et al., Journal of Molecular Structure (2014), MicroScale Thermophoresis: Interaction analysis and beyond.

K-Ras (Q61H) [4] = target: T3, K-Ras (Q61H) (Homo sapiens, UniProt P01116, Q61H); assay: Scintillation Proximity Assay (SPA), GTP affinity; format: binding
T3 sequence (P01116 1-188 isoform P01116-2 Q61H): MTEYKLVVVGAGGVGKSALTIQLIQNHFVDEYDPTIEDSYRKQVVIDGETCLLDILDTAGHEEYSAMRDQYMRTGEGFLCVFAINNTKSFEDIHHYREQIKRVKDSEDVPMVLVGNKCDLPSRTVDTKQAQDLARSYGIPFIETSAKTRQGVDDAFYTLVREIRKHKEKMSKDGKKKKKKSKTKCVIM
Text: as §1, §2, §3

K-Ras (G12D) [5] = target: T4, K-Ras (G12D) (Homo sapiens, UniProt P01116, G12D); assay: Scintillation Proximity Assay (SPA), GTP affinity; format: binding
T4 sequence (P01116 1-188 isoform P01116-2 G12D): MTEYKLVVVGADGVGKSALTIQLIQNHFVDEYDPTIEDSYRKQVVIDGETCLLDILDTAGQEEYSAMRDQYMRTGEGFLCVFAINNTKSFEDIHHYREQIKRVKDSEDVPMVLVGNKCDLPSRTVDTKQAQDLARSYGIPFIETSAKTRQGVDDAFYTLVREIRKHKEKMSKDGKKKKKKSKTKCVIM
Text: as §1, §2, §3

K-Ras (G12C) [6] = target: T5, K-Ras (G12C) (Homo sapiens, UniProt P01116, G12C); assay: Scintillation Proximity Assay (SPA), GTP affinity; format: binding
T5 sequence (P01116 1-188 isoform P01116-2 G12C): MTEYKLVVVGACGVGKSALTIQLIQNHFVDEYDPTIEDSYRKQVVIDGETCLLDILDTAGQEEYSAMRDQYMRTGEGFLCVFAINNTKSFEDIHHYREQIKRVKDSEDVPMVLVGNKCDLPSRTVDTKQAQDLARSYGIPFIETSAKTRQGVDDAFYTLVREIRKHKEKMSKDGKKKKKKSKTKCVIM
Text: as §1, §2, §3

Rac-1 [7] = target: T1, Rac-1; assay: Scintillation Proximity Assay (SPA), GTP affinity; format: binding
Rac-1 and Rho-A = assay: SPA and MST studies, GTP affinity for Rho subfamily members; conditions: read-out: affinity of GTP for the binding domain of Rho subfamily members
Text: as §2, §3

K-Ras GTP binding domain = assay: SPA and MST studies, GTP affinity across wild type and mutant K-Ras
Text: as §2, §3

Rho-A [8] = target: T6, Rho-A (Homo sapiens, UniProt P61586); assay: MicroScale Thermophoresis (MST), GTP affinity; format: binding
T6 sequence (P61586 whole entry): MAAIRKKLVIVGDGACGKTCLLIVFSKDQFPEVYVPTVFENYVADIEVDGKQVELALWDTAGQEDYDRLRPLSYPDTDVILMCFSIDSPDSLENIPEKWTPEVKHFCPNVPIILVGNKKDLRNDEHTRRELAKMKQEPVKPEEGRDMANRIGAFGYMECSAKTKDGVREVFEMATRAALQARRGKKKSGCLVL
Text: as §1, §2, §3

K-Ras (wild type) [9] = target: T2, K-Ras (wild type); assay: MicroScale Thermophoresis (MST), GTP affinity; format: binding
Text: as §1, §2, §3

K-Ras (Q61H) [10] = target: T3, K-Ras (Q61H); assay: MicroScale Thermophoresis (MST), GTP affinity; format: binding
Text: as §1, §2, §3

K-Ras (G12D) [11] = target: T4, K-Ras (G12D); assay: MicroScale Thermophoresis (MST), GTP affinity; format: binding
Text: as §1, §2, §3

K-Ras (G12C) [12] = target: T5, K-Ras (G12C); assay: MicroScale Thermophoresis (MST), GTP affinity; format: binding
Text: as §1, §2, §3

Rho-A [13] = target: T6, Rho-A; assay: Scintillation Proximity Assay (SPA), GTP affinity; format: binding
MEK phosphorylation [14] = assay: Western MEK cell-based phosphorylation assay, NCI H1975; conditions: Homo sapiens
Description: (§4) Cell lines: Human NSCLC cells NCI-H1975 and tumor-derived pancreatic cancer cell lines Panc-1 and MIA-PaCa-2 were all purchased from American Type Culture Collection and grown in complete RPMI medium (NCI-H1975) or DMEM-High Glucose (Panc1 and MIA-PaCa-2), supplemented with penicillin (100 U/mL), streptomycin (100 μg/mL), and 10% heat-inactivated FBS at 37° C. in a humidified incubator with 5% CO2.
(§5) Method: Cells were plated at 350000 cells/well density in a 12-well plate, allowed 3 hours to adhere to the plate, then starved in the appropriate medium in the presence of 0.5% FBS overnight. The small molecules to be tested were added to the cells in the final concentration of 10 μM in the presence of 0.3% DMSO for 6 hours incubation at 37° C. […] Protein concentration was assessed by BCA protein assay (Thermo Scientific). Phosphorylation level of MEK was determined by western blot.
(§6) Western blot protocol: Equal amounts of protein (15-50 μg) were separated by SDS-PAGE and transferred to nitrocellulose membranes (Invitrogen by Thermo Fisher Scientific). […] Membranes were blocked with 10% milk and phosphorylation levels of MEK were assessed by incubating overnight at 4° C. with anti-phospho-MEK 1/2 (Ser217/Ser221) antibody (Cell Signaling) followed by HRP-conjugated secondary antibody (Jackson Immunoresearch, West Grove, PA). […]

MEK phosphorylation [15] = assay: Western MEK cell-based phosphorylation assay, PANC-1; conditions: Homo sapiens
Description: as §4
Method: Cells were plated at 350000 cells/well density in a 12-well plate, allowed 3 hours to adhere to the plate, then starved in the appropriate medium in the presence of 0.5% FBS overnight. The small molecules to be tested were added to the cells in the final concentration of 10 μM in the presence of 0.3% DMSO for 6 hours incubation at 37° C. For IC50 value determination, serial dilutions of compounds were added to cells under the same conditions. Next, cells were stimulated with 1.5 ng/ml EGF for 15 minutes then cells were lysed with lysis buffer containing 1% Triton X-100, EDTA, and Halt™ Protease & Phosphatase Inhibitor Cocktail (Thermo Scientific). Protein concentration was assessed by BCA protein assay (Thermo Scientific). Phosphorylation level of MEK was determined by western blot.
Western blot protocol: Equal amounts of protein (15-50 μg) were separated by SDS-PAGE and transferred to nitrocellulose membranes (Invitrogen by Thermo Fisher Scientific). The membrane was stained with Ponceau S Stain (Boston BioProducts) to verify uniform protein loading. Membranes were blocked with 10% milk and phosphorylation levels of MEK were assessed by incubating overnight at 4° C. with anti-phospho-MEK 1/2 (Ser217/Ser221) antibody (Cell Signaling) followed by HRP-conjugated secondary antibody (Jackson Immunoresearch, West Grove, PA). Bands were incubated in Amersham ECL Prime Western Blotting Detection Reagent (GE Healthcare) and visualized using the ChemiDoc MP imaging system (Bio-Rad).

MEK phosphorylation [16] = assay: Western MEK cell-based phosphorylation assay, MIA PaCa-2; conditions: Homo sapiens
Description: as §4, §5, §6

GTP-bound RAS [17] = assay: Cell-based Ras-GTP pulldown assay, NCI H1975; conditions: Homo sapiens; for inhibition at 10 µM: 6 hours, EGF stimulation
Description: (§7) Cell lines: Human NSCLC cells NCI-H1975, and tumor-derived pancreatic cancer cell lines Panc-1, and MIA-PaCa-2, were all purchased from American Type Culture Collection and grown in complete RPMI medium (NCI-H1975) or DMEM-High Glucose (Panc1 and MIA-PaCa-2), supplemented with penicillin (100 U/mL), streptomycin (100 μg/mL), and 10% heat-inactivated FBS at 37° C. in a humidified incubator with 5% CO2.
(§8) Method: Cells were plated at 2·10^6 cells/well density in a 6-well plate, allowed 3 hours to adhere to the plate, then starved in the appropriate medium in the presence of 0.5% FBS overnight. The small molecules to be tested were added to the cells in the final concentration of 10 μM in the presence of 0.3% DMSO for 6 hours incubation at 37° C. For IC50 value determination, serial dilutions of compounds were added to cells under the same conditions. Next, cells were stimulated with 5 ng/mL EGF for 5 minutes, rinsed with ice-cold PBS and then lysed with 500 μL of lysis/binding/wash buffer (25 mM Tris-HCl, pH 7.2, 150 mM NaCl, 5 mM MgCl2, 5% glycerol, 1% NP40) from Active Ras Detection kit (Cell signaling Technology, #8821) supplemented with Halt™ Protease & Phosphatase Inhibitor Cocktail (Thermo Scientific). To account for significant differences in cell number due to the treatment, a small sample of lysate was saved for protein quantification and the rest of the lysate was snap frozen. Protein concentration was assessed by BCA protein assay (Thermo Scientific). To ensure that equal amount of protein undergoes RBD pulldown, lysates were subsequently thawed (at RT) and adjusted to 1 mg/mL with lysis/binding/wash buffer (0.5 mL volume). Equal amounts of lysate were then added to 0.5 mL lysis buffer containing RAF-RBD (1 mL total volume). Lysates were vortexed, incubated for 10 min on ice and subsequently pre-cleared at 14,000 rpm for 5 min at 4° C. 90% of the pre-cleared lysates were subsequently added to pre-washed glutathione agarose beads from Active Ras Detection kit (Cell signaling Technology, #8821) for 1 hour at 4 °C under constant rocking. The beads were subsequently pelleted, washed 3 times with lysis/binding/wash buffer, and eluted for western blotting with 50 μL of 1×SDS-PAGE sample buffer. Level of GTP-bound RAS was determined by western blot.
(§9) Western blot protocol: Equal volumes of eluate (25 μL) were separated by 16% SDS-PAGE and transferred to nitrocellulose membranes (Invitrogen by Thermo Fisher Scientific). The membrane was stained with Ponceau S Stain (Boston BioProducts) to verify uniform protein loading. […]

GTP-bound RAS [18] = assay: Cell-based Ras-GTP pulldown assay, MIA PaCa-2; conditions: Homo sapiens; for inhibition at 10 µM: 6 hours, EGF stimulation
Description: as §7, §8
Western blot protocol: Equal volumes of eluate (25 μL) were separated by 16% SDS-PAGE and transferred to nitrocellulose membranes (Invitrogen by Thermo Fisher Scientific). The membrane was stained with Ponceau S Stain (Boston BioProducts) to verify uniform protein loading. Membranes were blocked with 5% BSA in TBST and then incubated overnight at 4° C. with anti-RAS mouse monoclonal antibody from the Active Ras Detection kit (Cell signaling Technology, #8821), followed by HRP-conjugated secondary antibody (Jackson Immunoresearch, West Grove, PA). Membranes were incubated in Amersham ECL Prime Western Blotting Detection Reagent (GE Healthcare) and bands were visualized using the ChemiDoc MP imaging system (Bio-Rad).

GTP-bound RAS [19] = assay: Cell-based Ras-GTP pulldown assay, PANC-1; conditions: Homo sapiens; for inhibition at 10 µM: 6 hours, EGF stimulation
Description: as §7, §8, §9

Nc1nc2c(ncn2[C@@H]2O[C@H](COP(=O)(O)OP(=O)(O)O)[C@@H](O)[C@H]2O)c(=O)[nH]1 [GDP]
affinity for the GTP binding domain of Ras [1]: single to double digit picomolar

Nc1nc2c(ncn2[C@@H]2O[C@H](COP(=O)(O)OP(=O)(O)OP(=O)(O)O)[C@@H](O)[C@H]2O)c(=O)[nH]1 [GTP]
Kd (Rac-1 [2]): 0.166 ± 0.01 µM
Kd (K-Ras (wild type) [3]): 0.243 ± 0.015 µM
Kd (K-Ras (Q61H) [4]): 0.118 ± 0.011 µM
Kd (K-Ras (G12D) [5]): 0.27 ± 0.015 µM
Kd (K-Ras (G12C) [6]): 0.258 ± 0.018 µM
Kd (Rac-1 [7]): 0.151 ± 0.014 µM
Kd (Rac-1 and Rho-A): 0.12 to 0.17 µM
affinity for the GTP binding domain of Ras [1]: single to double digit picomolar
Kd (K-Ras GTP binding domain): 0.1 to 0.465 µM
Kd (Rho-A [8]): 0.13 ± 0.005 µM
Kd (K-Ras (wild type) [9]): 0.463 ± 0.002 µM
Kd (K-Ras (Q61H) [10]): 0.157 ± 0.021 µM
Kd (K-Ras (G12D) [11]): 0.244 ± 0.012 µM
Kd (K-Ras (G12C) [12]): 0.207 ± 0.046 µM
Kd (Rho-A [13]): 0.129 ± 0.012 µM

COCCNc1nc(-c2nccn2C)nc2sc(-c3cccc(OC)c3Cl)c(-c3ccccc3)c12 [drawing 476]
IC50 (MEK phosphorylation [14]): > 1 µM
IC50 (MEK phosphorylation [15]): 0.75 to 1 µM
IC50 (MEK phosphorylation [16]): 0.75 to 1 µM

COc1cccc(-c2sc3nc(-c4nccn4C)nc(N4CCC(OC)C4)c3c2-c2ccccc2)c1F (stereo not drawn) [drawing 477]
IC50 (MEK phosphorylation [15]): > 1 µM

CO[C@H]1CCC(Nc2nc(-c3nccn3C)nc3sc(-c4ccn(C)n4)c(-c4ccccc4)c23)C1 (stereo partly drawn) [drawing 478]
IC50 (MEK phosphorylation [14]): > 1 µM
IC50 (MEK phosphorylation [15]): 0.75 to 1 µM
IC50 (MEK phosphorylation [16]): > 1 µM

COCCNc1nc(-c2nccn2C)nc2sc(-c3cccc(OC)c3Cl)c(-c3ccccc3)c12 [drawing 1076]
inhibition at 10 µM (GTP-bound RAS [17]): 76 to 100%
inhibition at 10 µM (GTP-bound RAS [18]): 76 to 100%
inhibition at 10 µM (GTP-bound RAS [19]): 76 to 100%

CO[C@H]1CCC(Nc2nc(-c3nccn3C)nc3sc(-c4ccn(C)n4)c(-c4ccccc4)c23)C1 (stereo partly drawn) [drawing 1077]
inhibition at 10 µM (GTP-bound RAS [17]): 76 to 100%
inhibition at 10 µM (GTP-bound RAS [18]): 76 to 100%
inhibition at 10 µM (GTP-bound RAS [19]): 76 to 100%

CO[C@H]1CC[C@@H](Nc2nc(-c3nccn3C)nc3sc(-c4ccn(C(C)C)n4)c(C4=CC=CCC=C4)c23)C1 [drawing 1078]
inhibition at 10 µM (GTP-bound RAS [18]): 76 to 100%

COCCNc1nc(-c2nccn2C)nc2sc(-c3cccc(OC)c3Cl)c(-c3ccccc3)c12 [drawing 1079]
IC50 (GTP-bound RAS [17]): > 1 µM
IC50 (GTP-bound RAS [18]): 0.75 to 1 µM
IC50 (GTP-bound RAS [19]): 0.75 to 1 µM

CO[C@H]1CCC(Nc2nc(-c3nccn3C)nc3sc(-c4ccn(C)n4)c(-c4ccccc4)c23)C1 (stereo partly drawn) [drawing 1080]
IC50 (GTP-bound RAS [17]): > 1 µM
IC50 (GTP-bound RAS [18]): > 1 µM
IC50 (GTP-bound RAS [19]): 0.75 to 1 µM
